Marks after values point to notes of the source that are not given here.
Columns and labels:
Assay type in all cases: cell-based
AmelOR109 [1] = target: T1, AmelOR109 (Apis mellifera, UniProt A0A7M6UWX9); assay: single sensillum recording, ab3A OSN; details: agonist; 1000 µg on filter paper; vs mineral oil
T1 construct: gene Or109; full-length ORF, codon-optimized, pUAST.attB at 86F8; expressed in ab3A OSNs of D. melanogaster lacking OR22a/OR22b (empty neuron); endogenous Drosophila Orco as co-receptor; with Odorant receptor coreceptor
T1 sequence (A0A7M6UWX9 1-390): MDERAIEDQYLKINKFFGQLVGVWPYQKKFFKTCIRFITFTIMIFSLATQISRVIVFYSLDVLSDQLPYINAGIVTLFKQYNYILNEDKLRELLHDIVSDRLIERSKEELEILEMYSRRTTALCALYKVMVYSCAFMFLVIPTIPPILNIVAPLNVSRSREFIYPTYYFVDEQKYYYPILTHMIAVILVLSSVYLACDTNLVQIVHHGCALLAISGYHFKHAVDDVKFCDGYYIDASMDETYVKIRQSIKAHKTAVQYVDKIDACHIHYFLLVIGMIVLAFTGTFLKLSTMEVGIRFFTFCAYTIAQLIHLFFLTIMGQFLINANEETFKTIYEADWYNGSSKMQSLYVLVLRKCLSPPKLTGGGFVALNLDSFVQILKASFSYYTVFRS
T1 sequence (Q9VNB5 1-486 partner): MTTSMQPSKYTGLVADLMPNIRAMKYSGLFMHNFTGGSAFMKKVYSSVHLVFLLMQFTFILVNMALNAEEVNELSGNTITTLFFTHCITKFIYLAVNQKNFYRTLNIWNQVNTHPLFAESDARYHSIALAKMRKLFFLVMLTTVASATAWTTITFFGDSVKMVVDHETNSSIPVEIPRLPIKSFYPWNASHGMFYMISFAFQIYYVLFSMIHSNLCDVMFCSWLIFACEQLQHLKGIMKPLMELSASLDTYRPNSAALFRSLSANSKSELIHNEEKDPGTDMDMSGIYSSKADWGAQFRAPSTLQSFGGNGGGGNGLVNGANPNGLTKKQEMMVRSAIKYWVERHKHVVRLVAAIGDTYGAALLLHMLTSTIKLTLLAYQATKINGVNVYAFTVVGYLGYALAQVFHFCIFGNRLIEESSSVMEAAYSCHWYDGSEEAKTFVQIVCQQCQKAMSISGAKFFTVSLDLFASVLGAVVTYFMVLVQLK

AmelOR109 [2] = target: T1, AmelOR109; assay: single sensillum recording, ab3A OSN, dose-response; details: agonist; estimated airborne amount in stimulus, not a concentration; vs mineral oil; full curve only in Figure 5B
AmelOR109 [3] = target: T1, AmelOR109; assay: transcuticular calcium imaging (GCaMP6s), ab3A OSN; details: agonist; 1000 µg on filter paper; vs mineral oil

dose of statistical significance (AmelOR109 [2])	SMILES	also measured
	CCC(C)=O [2-butanone]	spikes per second (AmelOR109 [1]): AmelOR109 was activated by multiple compounds in the panel, including 2-butanone
390 pmol	CC(=O)OCc1ccccc1 [benzyl acetate]	
47000 pmol	CCCC(=O)OCC [ethyl butyrate]	
	CC(C)=CCC/C(C)=C/C(=O)O [geranic acid]	ΔF/F0 (AmelOR109 [3]): two compounds from the aggregation pheromone were strongly active: geranic acid
2700 pmol	CC(=O)OCCC(C)C [isopentyl acetate]	
15000 pmol	CCCCCCCCOC(C)=O [octyl acetate]	

Source: publication PMC12848076, “Identification of two odorant receptors tuned to alarm pheromone compounds in the honey bee Apis mellifera” (Communications Biology, 2025)
